Data on 29 molecules can be found in patent publication US4673684A, “Amide derivatives and 5-lipoxygenase inhibitors containing the same as an active ingredient” (Terumo Corporation, priority 1984, dated 1987).

The experiment addresses T1, 5-lipoxygenase (Mus musculus, UniProt P48999).
T1 construct: The supernatant is used as a 5-lipogenase enzyme solution; endogenous in cells
T1 sequence (P48999 1-674): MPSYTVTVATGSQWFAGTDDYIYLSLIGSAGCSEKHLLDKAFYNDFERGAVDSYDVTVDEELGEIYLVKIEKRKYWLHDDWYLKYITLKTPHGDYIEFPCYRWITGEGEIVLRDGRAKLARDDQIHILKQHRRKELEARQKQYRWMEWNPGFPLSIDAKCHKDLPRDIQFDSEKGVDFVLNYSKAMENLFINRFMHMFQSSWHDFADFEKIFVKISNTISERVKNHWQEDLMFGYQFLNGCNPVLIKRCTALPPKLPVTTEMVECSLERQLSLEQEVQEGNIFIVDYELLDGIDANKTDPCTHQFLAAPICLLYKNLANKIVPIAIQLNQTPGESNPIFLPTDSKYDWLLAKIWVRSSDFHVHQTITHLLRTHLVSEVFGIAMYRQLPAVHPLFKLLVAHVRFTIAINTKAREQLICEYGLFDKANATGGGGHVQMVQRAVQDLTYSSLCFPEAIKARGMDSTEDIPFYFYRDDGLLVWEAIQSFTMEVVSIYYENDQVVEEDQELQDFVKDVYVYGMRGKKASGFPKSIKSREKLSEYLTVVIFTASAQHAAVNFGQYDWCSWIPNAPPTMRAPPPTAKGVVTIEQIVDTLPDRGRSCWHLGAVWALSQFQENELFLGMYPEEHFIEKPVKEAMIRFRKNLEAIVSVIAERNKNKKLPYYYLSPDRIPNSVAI
Briefly: 5-Lipoxygenase-inhibiting Activity (decrease in 5-HETE and LTB4 formed from radiolabelled arachidonic acid, enzyme solution from mouse mastcytoma cells P-815). The format is biochemical. Particulars: 5-HETE and LTB4 formation; mouse mastcytoma P-815 enzyme solution; 37° C., 5 min; pH 7.4; with indomethacin; read-out: 50% Inhibitory concentration IC50. The protocol: Mouse mastcytoma cells P-815 are diluted in a culture solution, containing 90% Eagle Basic Medium (manufactured by Gibco Laboratories) to 5×10^4 cells/ml. The diluted solution is cultivated with shaking in air at 37° C. for 48 hours. Then, the culture solution is cooled with ice and centrifuged to collect the cells. The cells are suspended in a phosphate buffer solution at pH 7.4 at a concentration of 2×10^7 cells/ml. The suspension is treated in a ultrasonic cell disintegrater and then centrifuged at 10,000 r.p.m. for 10 min. The supernatant is used as a 5-lipogenase enzyme solution. In test tubes are placed 20 μl of radiolabelled arachidonic acid ([…]), indomethacin (2×10^-8 mol) and an amide derivative to be tested, respectively. To each of the test tubes are added 0.45 ml of a phosphate buffer solution, 0.45 ml of the above-prepared suspension, 0.45 ml of the above-prepared enzyme solution and 0.1 ml of 8 mM CaCl2 (calcium chloride). The mixture is reacted at 37° C. for 5 min. After cooled with ice, 60 μl of 1N-HCl (hydrochloric acid is added to the reaction mixture, which is then extracted with 8 ml of ethyl acetate. The extract is concentrated, and the concentrate is developed by spotting on a silica gel thin layer plate (Merck 60F 254). Measurement of the inhibitory activity is made by collecting fractions corresponding to lipoxygenase products 5-HETE (5(s)-hydroxy-6,8,11,14-eicosatetraenic acid) and LTB4 (leucotriene B4) and determining the radioactivity by a liquid scintillation counter. The lipoxygenase inhibiting activity is determined by decrease in the amount of the above-mentioned 5-lipoxygenaseproducts. […] 50% inhibitory concentration or 30% inhibitory concentration as indicated in the table means the concentration of an amide derivative required for reducing the amount of the above-mentioned 5-lipoxygenase products (5-HETE and LTB4) to 50% or 30% of the amount when the amount of 5-HETE and LTB4 produced in the absenced of the amide derivative is 100%.

Regarding `COc1cc(/C=C/C=C/C(=O)N2CCN(CCCOC(c3ccccc3)c3ccccc3)CC2)ccc1O` [Example 90, N-[5-(3-methoxy-4-hydroxyphenyl)-2,4-pentadienoyl]-N'-(3-benzhydroxypropyl)piperazine], the IC50 turned out to be 60 nM. On to `COc1cc(/C=C/C=C/C(=O)N2CCN(CCn3cnc4c3c(=O)n(C)c(=O)n4C)CC2)cc(OC)c1OC` [Example 115, 7-[2-[4-[5-(3,4,5-trimethoxyphenyl)-2,4-pentadienoyl]piperazin-1-yl]ethyl]theophylline], for which the IC50 worked out at 20000 nM. The value for `COc1cc(/C=C/C=C/C(=O)NCCCOC(c2ccccc2)c2ccccc2)ccc1O` [Example 92, 3-[5-[3-methoxy-4-hydroxyphenyl)-2,4-pentadienoyl]aminopropyl benzhydryl ether] was 90 nM; that for `COc1cc(/C=C/C=C/C(=O)N2CCN(CCOC(C)(c3ccccc3)c3ccc(Cl)cc3)CC2)cc(OC)c1O` (centres unmarked) [Example 113, N-[5-(3,5-dimethoxy-4-hydroxyphenyl]-2,4-pentadienoyl]-N'-[2-[1-phenyl-1-(p-chlorophenyl)ethoxy]ethyl]piperazine] was 20 nM.

As to `O=C(/C=C/C=C/c1ccc(O)c(O)c1)NCCCCN1CCN(C(c2ccccc2)c2ccc(Cl)cc2)CC1` (centres unmarked) [Example 82, N-(p-chlorobenzhydryl)-N'-[4-[5-(3,4-dihydreoxyphenyl) -2,4-pentadienoyl]aminobutyl]piperazine], the IC50 came to 20 nM. Next, `O=C(/C=C/C=C/c1ccc(O)c(O)c1)NCCCN1CCN(C(c2ccccc2)c2ccc(Cl)cc2)CC1` (centres unmarked) [Example 45, N-(p-chlorobenzhydryl)-N'-[{5-(3,4-dihydroxyphenyl)-2,4-pentadienoyl}-aminopropyl]piperazine]: 60 nM; `COc1cc(/C=C/C=C/C(=O)N2CCN(CCCOC(C)(c3ccccc3)c3ccc(Cl)cc3)CC2)ccc1O` (centres unmarked) [Example 111, N-[5-(3-methoxy-4-hydroxy)phenyl-2,4-pentadienoyl)-N'-[3-[1-phenyl-1-(p-chlorophenyl)ethoxy]propyl]piperazine]: 10 nM; `COc1ccc(/C=C/C=C/C(=O)N2CCN(CCCOC(c3ccccc3)c3ccccc3)CC2)cc1OC` [Example 94, N-[5-(3,4-dimethoxyphenyl)-2,4-pentadienoyl]-N'-(3-benzhydroxypropyl)piperazine]: 4000 nM. The value for `COc1cc(/C=C/C(=O)NCCCCNC(=O)/C=C/c2ccc(O)c(OC)c2)ccc1O` [Example 4, N,N'-bis-{3-(3-methoxy-4-hydroxyphenyl)-2-propenoyl}-1,4-diaminobutane] was 2000 nM; that for `COc1cc(/C=C/C(=O)N2CCN(CCCOC(c3ccccc3)c3ccccc3)CC2)ccc1O` [Example 71, N-[3-(3-methoxy-4-hydroxy)phenyl-2-propenoyl]-(3-benzhydroxypropyl)piperazine] was 600 nM. Next, `O=C(/C=C/c1ccc(O)c(O)c1)NCCCN1CCC(OC(c2ccccc2)c2ccccc2)CC1` [Example 122, 1-[3-[3-(3,4-dihydroxyphenyl)-2-propenoyl]aminopropyl]-4-benzhydroxypiperidine]: 10 nM; `COc1cc(/C=C/C(=O)NCCCN2CCN(C(c3ccccc3)c3ccccc3)CC2)ccc1O` [Example 34]: 300 nM. As to `Cn1c(=O)c2c(ncn2CCNC(=O)/C=C/c2ccc(O)c(O)c2)n(C)c1=O` [Example 65, 7-[2-[3-(3,4-dihydroxy)phenyl-2-propenoyl]aminoethyl]theophilline], the IC50 was 2000 nM. Next, `COc1cc(/C=C/C(=O)N2CCN(CCCCn3cnc4c3c(=O)n(C)c(=O)n4C)CC2)cc(OC)c1O` [Example 125, 7-[4-[4-{3-(3,5-dimethoxy-4-hydroxyphenyl)-2-propenoyl}piperazi-1-nyl]butyl]theophylline]: 7000 nM; `COc1cc(/C=C/C(=O)N2CCN(CCCOC(C)(c3ccccc3)c3ccc(Cl)cc3)CC2)cc(OC)c1O` (centres unmarked) [Example 106, N-[3-(3,5-dimethoxy-4-hydroxy)phenyl-2-propenoyl]-N'-[3-[1-phenyl-1-(p-chlorophenyl)ethoxy]propyl]piperazine]: 10 nM; `COc1cc(/C=C/C=C/C(=O)NCCN2CCC(OC(c3ccccc3)c3ccccc3)CC2)ccc1O` [Example 119, 1-[2-[5-(3-methoxy-4-hydroxyphenyl)-2,4-pentadienoyl]aminoethyl]4-benzhydroxypiperidine]: 9 nM. The value for `COc1ccc(/C=C/C(=O)N2CCN(CCCOC(C)(c3ccccc3)c3ccc(Cl)cc3)CC2)cc1OC` (centres unmarked) [Example 104, N-[3-(3,4-dimethoxy)phenyl-2-propenoyl]-N'-[3-[1-phenyl-1-(p-chlorophenyl)ethoxy]propyl]piperazine] was 10000 nM; that for `COc1cc(/C=C/C=C/C(=O)NCCN2CCN(C)CC2)ccc1O` [Example 40] was 10000 nM. The value for `CC/C=C\C/C=C\C/C=C\CCCCCCCC(=O)NCCCCNC(=O)/C=C/C=C/c1ccc(O)c(OC)c1` [Example 19, N-{5-(3-methoxy-4-hydroxyphenyl)-2,4-pentadienoyl}-N'-9,12,15-octadecatrienoyl-1,4-diaminobutane] was 200 nM; that for `COc1cc(/C=C/C=C/C(=O)NCCN2CCN(C(c3ccccc3)c3ccc(Cl)cc3)CC2)cc(OC)c1O` (centres unmarked) [Example 54, N-(p-chlorobenzhydryl)-N'-[2-{5-(3,5-dimethoxy-4-hydroxyphenyl)-2,4-pentadienoyl}aminoethyl]piperazine] was 20 nM. With `CC/C=C\C/C=C\C/C=C\C/C=C\C/C=C\C/C=C\CCC(=O)NCCCCNC(=O)/C=C/C=C/c1ccc(O)c(O)c1` [Example 22, N-5-(3,4-dihydroxyphenyl)-2,4-pentadienoyl-N'-4,7,10,13,16,19-docosahexaenoyl-1,4-diaminobutane], the IC50 was determined as 40 nM. For the molecule `O=C(/C=C/c1ccc(O)c(O)c1)Nc1cc(Cl)ccc1O` [Example 10, N-{3-(3,4-dihydroxyphenyl)-2-propenoyl}-5-chloro-2-hydroxyaniline], the IC50 came to 30 nM. The value for `O=C(/C=C/c1ccc(O)c(O)c1)NCCCCN1CCN(C(c2ccccc2)c2ccc(Cl)cc2)CC1` (centres unmarked) [Example 63] was 50 nM; that for `COc1cc(/C=C/C(=O)NCCOC(c2ccccc2)c2ccccc2)cc(OC)c1O` [Example 81, 2-[3-(3,5-dimethoxy-4-hydroxy]phenyl-2-propenoyl) aminoethyl benzhydryl ether] was 50 nM; that for `COc1cc(/C=C/C=C/C(=O)Nc2ccccc2C(=O)O)cc(OC)c1O` [Example 57, N-{5-(3,5-dimethoxy-4-hydroxyphenyl)-2,4-pentadienoyl}anthranilic acid] was 400 nM.

With `COc1cc(/C=C/C=C/C(=O)NCCOC(c2ccccc2)c2ccccc2)cc(OC)c1O` [Example 100, 2-[5-(3,5-dimethoxy-4-hydroxy)phenyl-2,4-pentadienoyl]aminoethyl benzhydryl ether], the IC50 stood at 10 nM.

For the molecule `COc1cc(/C=C/C=C/C(=O)NCc2c(CO)cnc(C)c2O)cc(OC)c1O` [Example 56, 4-[5-(3,5-dimethoxy-4-hydroxyphenyl)-2,4-pentadineoyl]aminomethyl-3-hydroxy-5-hydroxymethyl-2-methylpyridine], the IC50 was 1000 nM. The value for `O=C(/C=C/c1ccc(O)c(O)c1)NCCCN1CCN(C(c2ccccc2)c2ccccc2)CC1` [Example 37, N-benzhydryl-N'-[{3-(3,4-dihydroxyphenyl)-2-propenoyl}-aminopropyl]piperazine] was 30 nM.

Turning to `COc1cc(/C=C/C(=O)N2CCN(CCOC(c3ccccc3)c3ccccc3)CC2)ccc1O` [Example 70], the IC50 came to 600 nM.
